# B1: FABP4: recombinant FABP4 protein (MCE, cat#HY-P70293) (protein, UniProt P04117 2-132, looked up)
# Fatty acid-binding protein, …: CDAFVGTWKLVSSENFDDYMKEVGVGFATRKVAGMAKPNMIISVNGDLVTIRSESTFKNTEISFKLGVEFDEITADDRKVKSIITLDGGALVQVQKWDGKSTTIKRKRDGDKLVVECVMKGVTSTRVYERA
# Tests used:
# [1] = system: FABP4; assay: ELISA of serum FABP4, OVX mice, oral gavage study; type: in vivo, mouse; details: 28 days daily oral gavage, ALD […], BMS 10 mg/kg
# [2] = system: PINP; assay: ELISA of serum PINP, OVX mice, oral gavage study; type: in vivo, mouse; details: vs Model
# [3] = system: CTX-1; assay: ELISA of serum CTX-1, OVX mice, oral gavage study; type: in vivo, mouse
# [4] = system: OVX mice; assay: H&E staining of bone marrow adipose tissue, OVX mice, oral gavage study; type: in vivo, mouse; details: BMS vs ALD
# [5] = system: FABP4; assay: IHC of FABP4 in tibial bone marrow, OVX mice, oral gavage study; type: in vivo, mouse; details: BMS vs ALD
# [6] = system: human BMSCs; assay: Osteoblastic differentiation of BMSCs, Alizarin Red staining; type: cell-based; details: FABP4 25 or 50 ng/mL, with BMS 5 or 10 μM, 21-day induction
# [7] = system: TRAP, c-Fos, NFATc1; assay: Western Blotting of OCs differentiation marker proteins; type: cell-based, mouse; details: OCs + BMS
# [8] = system: OVX mice; type: in vivo, mouse
# [9] = system: OVX mice; type: in vivo, mouse; details: BMS 10 mg/kg oral
# [10] = system: OVX mice; type: in vivo, mouse; details: BMS 10 mg/kg oral; remark: listed apart in the source
# [11] = system: OVX mice; assay: Three-point bending test on femoral midshaft, OVX mice, oral gavage study; type: in vivo, mouse; details: oral administration of BMS
# [12] = PK analysis in SD rats; type: in vivo, rat
# [13] = system: BMMs; assay: OCs formation from BMMs; type: cell-based, mouse; details: 25 ng/mL FABP4 during RANKL induction of BMMs
# [14] = system: OCs; assay: Bone resorption activity of mature OCs on bovine bone slices; type: cell-based, mouse; details: SEM
# [15] = system: OCs; assay: F-actin staining of OCs; type: cell-based, mouse; details: vs group with only RANKL and M-CSF
# [16] = system: intracellular Ca2+ in OCs; assay: Ca2+ concentration detection in OCs; type: cell-based, mouse; details: OCs + FABP4 (25 ng/mL)
# [17] = OVX mice, BMS 10 mg/kg oral, 28 days
molecule,measurement,setting,value
"NCCCC(O)(P(=O)(O)O)P(=O)(O)O [ALD, alendronate sodium]",serum FABP4 levels vs Model group,[1],significantly reduced
same,bone formation (serum PINP),[2],little effect
same,bone resorption (serum CTX-1),[3],reduced
same,bone marrow fat tissue (H&E staining),[4],no significant difference
same,FABP4 protein expression in bone marrow (IHC),[5],no significant difference
CCc1c(-c2ccccc2)c(-c2ccccc2)nn1-c1ccccc1-c1cccc(OCC(=O)O)c1 [BMS309403],osteogenic differentiation capacity of BMSCs (Alizarin Red staining),[6],neither the FABP4 protein nor its inhibitor affected
same,"TRAP, c-Fos, and NFATc1 protein levels",[7],suppression
same,bone resorption (serum CTX-1),[3],reduced
same,efficacy in femur compared to ALD,"[8]; BMS 10 mg/kg, 7.7 times the ALD dose ([…]), oral",did not achieve the same efficacy
same,femoral BMD,[8]; [17],increased
same,"trabecular thickness (Tb.Th), distal femur",[8]; [17],increased
same,"trabecular number (Tb.N), distal femur","[8]; OVX mice, BMS 10 mg/kg oral, 28 days, listed as BMS",increased
same,"BMD, L5 lumbar vertebra",[9],significantly improving
same,"Tb.N, L5 lumbar vertebra",[9],significantly improving
same,"Tb.Th, L5 lumbar vertebra",[9],significantly improving
same,"bone volume/total volume (BV/TV), L5 lumbar vertebra",[9],significantly improving
same,"trabecular separation (Tb.Sp), L5 lumbar vertebra",[9],significantly improving
same,bone resorption in vivo (TRAP staining of tibia sections),[10],inhibitory effect
same,"bone stiffness, femoral midshaft",[11],improved
same,"elastic modulus, femoral midshaft",[11],improved
same,Cl,"[12]; IV 2.0 mg/kg, G1-Mean (n = 3)",11.523 mL/min/kg
same,MRT(0-∞),"[12]; IV 2.0 mg/kg, G1-Mean (n = 3)",0.84 h
same,Vz,"[12]; IV 2.0 mg/kg, G1-Mean (n = 3)",1.73416 L/kg
same,Cmax,"[12]; IV 2.0 mg/kg, G1-Mean (n = 3), listed as BMS, 2 mg/kg",7094.95 ng/mL
same,AUC(0-t),"[12]; PO 10.0 mg/kg, G2-Mean (n = 3)",5527.36 ng·h/mL
same,T1/2,"[12]; PO 10.0 mg/kg, G2-Mean (n = 3), listed as BMS, 10 mg/kg",3.16 h
B1,osteogenic differentiation capacity of BMSCs (Alizarin Red staining),[6],neither the FABP4 protein nor its inhibitor affected
same,formation of OCs (TRAP staining),[13],significantly promoted the formation of OCs
same,bone resorption by mature OCs on bovine bone slices,[14],enhanced bone resorption
same,F-actin / bone skeleton structure of OCs,[15],more regular and distinct bone skeleton structure with abundant F-actin
same,intracellular calcium levels in OCs,[16],significant increase

# Reference: paper PMC12075751 (Nature Communications, 2025)
